US6737383B1, “Herbicidal oxadiazolidines” (priority 1999, dated 2004)

Columns and labels:
duck salad = experiment: Test B flood test duck salad; assay type: in vivo, Heteranthera limosa
Method: (§1) At the same time, these crop and weed species were also treated with postemergence applications of test chemicals formulated in the same manner. Plants ranged in height from 2 to 18 cm (1- to 4-leaf stage) for postemergence treatments. Plant species in the flood test consisted of rice (Oryza sativa), smallflower flatsedge (Cyperus difformis), duck salad (Heteranthera limosa) and bamyardgrass (Echinochloa crus-galli) grown to the 2-leaf stage for testing. Treated plants and controls were maintained in a greenhouse for twelve to sixteen days, after which all species were compared to controls and visually evaluated. Plant response ratings, summarized in Table B, are based on a scale of 0 to 10 where 0 is no effect and 10 is complete control. A dash (−) response means no test result.

bamyardgrass = experiment: Test B flood test barnyardgrass; assay type: in vivo, Echinochloa crus-galli
Method: as §1

smallflower flatsedge = experiment: Test B flood test smallflower flatsedge; assay type: in vivo, Cyperus difformis
Method: as §1

velvetleaf = experiment: Test B pre/postemergence velvetleaf; assay type: in vivo, Abutilon theophrasti
Summary of the method: (§2)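 Herbicidal effect was estimated by eye on a ten-point control scale after plants spent twelve to sixteen days in a greenhouse following soil or foliar treatment. Foliar sprays targeted plants at one to four leaves; all doses were formulated in a non-phytotoxic solvent with surfactant.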

surinam grass = experiment: Test B pre/postemergence surinam grass; assay type: in vivo, Brachiaria decumbens
Summary of the method: as §2

crabgrass = experiment: Test B pre/postemergence crabgrass; assay type: in vivo, Digitaria sanguinalis
Summary of the method: as §2

morningglory = experiment: Test B pre/postemergence morningglory; assay type: in vivo, Ipomoea hederacea
Summary of the method: as §2

sugar beet = experiment: Test B pre/postemergence sugar beet; assay type: in vivo, Beta vulgaris
Summary of the method: as §2

giant foxtail = experiment: Test B pre/postemergence giant foxtail; assay type: in vivo, Setaria faberii
Summary of the method: as §2

purple nutsedge = experiment: Test B pre/postemergence purple nutsedge; assay type: in vivo, Cyperus rotundus
Summary of the method: as §2

wild oat = experiment: Test B pre/postemergence wild oat; assay type: in vivo, Avena fatua
Summary of the method: as §2

bedstraw = experiment: Test B pre/postemergence bedstraw; assay type: in vivo, Galium aparine
Summary of the method: as §2

soybean = experiment: Test B pre/postemergence soybean; assay type: in vivo, Glycine max
Summary of the method: as §2

corn = experiment: Test B pre/postemergence corn; assay type: in vivo, Zea mays
Summary of the method: as §2

blackgrass = experiment: Test B pre/postemergence blackgrass; assay type: in vivo, Alopecurus myosuroides
Summary of the method: as §2

rape = experiment: Test B pre/postemergence rape; assay type: in vivo, Brassica napus
Summary of the method: as §2

wheat = experiment: Test B pre/postemergence wheat; assay type: in vivo, Triticum aestivum
Summary of the method: as §2

cocklebur = experiment: Test B pre/postemergence cocklebur; assay type: in vivo, Xanthium strumarium
Summary of the method: as §2

pigweed = experiment: Test B pre/postemergence pigweed; assay type: in vivo, Amaranthus retroflexus
Summary of the method: as §2

[1] = Rate 62 g/ha, flood test species, Pre-emergence, visual evaluation after twelve to sixteen days
[2] = Rate 125 g/ha, under heading Pre-emergence, flood test species, visual evaluation after twelve to sixteen days
[3] = Rate 250 g/ha, Pre-emergence (flood test species), scale 0 to 10, 0 is no effect, 10 is complete control
[4] = Rate 500 g/ha, Pre-emergence section of Table B, 0 to 10 scale (0 no effect, 10 complete control)
[5] = Postemergence, Rate 62 g/ha, scale 0 to 10, 0 is no effect, 10 is complete control
[6] = Postemergence, Rate 125 g/ha, scale of 0 to 10 where 0 is no effect and 10 is complete control
[7] = Preemergence, Rate 62 g/ha, scale of 0 to 10 where 0 is no effect and 10 is complete control
[8] = Preemergence, Rate 125 g/ha, scale of 0 to 10 where 0 is no effect and 10 is complete control
[9] = Preemergence, Rate 250 g/ha, scale 0 (no effect) to 10 (complete control)
[10] = Rate 250 g/ha, Postemergence, scale 0 to 10, 0 is no effect, 10 is complete control
[11] = Rate 500 g/ha, Postemergence, scale 0 to 10, 0 is no effect, 10 is complete control
[12] = Preemergence, Rate 500 g/ha, scale of 0 to 10 where 0 is no effect and 10 is complete control

SMILES: CC(C)N(C(=O)n1oc(=O)n(CCc2ccccc2)c1=O)c1ccc(Cl)cc1 [Compound 538]
- Plant response rating, Ducksalad (0 to 10 scale, 0 is no effect, 10 is complete control) (duck salad; [1]): 0
- Ducksalad plant response rating (0 to 10 scale, 0 is no effect, 10 is complete control) (duck salad; [2]): 0
- Ducksalad plant response rating (duck salad; [3]): 0
- Ducksalad plant response rating (duck salad; [4]): 0
- Plant response rating, Barnyardgrass (0 to 10 scale, 0 is no effect, 10 is complete control) (bamyardgrass; [1]): 0
- Barnyardgrass plant response rating (0 to 10 scale, 0 is no effect, 10 is complete control) (bamyardgrass; [2]): 0
- Barnyardgrass plant response rating (bamyardgrass; [3]): 0
- Barnyardgrass plant response rating (bamyardgrass; [4]): 0
- Plant response rating, S. Flatsedge (0 to 10 scale, 0 is no effect, 10 is complete control) (smallflower flatsedge; [1]): 0
- S. Flatsedge plant response rating (0 to 10 scale, 0 is no effect, 10 is complete control) (smallflower flatsedge; [2]): 0
- S. Flatsedge plant response rating (smallflower flatsedge; [3]): 0
- S. Flatsedge plant response rating (smallflower flatsedge; [4]): 0

SMILES: CC(C)N(C(=O)n1oc(=O)n(CC(F)F)c1=O)c1ccc(F)cc1F [Compound 711]
- Plant response rating, Velvetleaf (velvetleaf; [5]): 3
- Velvetleaf plant response rating (velvetleaf; [6]): 5
- Velvetleaf plant response rating (velvetleaf; [7]): 4
- Plant response rating, Velvetleaf (velvetleaf; [8]): 6
- Velvetleaf plant response rating (velvetleaf; [9]): 6
- Velvetleaf plant response rating (velvetleaf; [10]): 6
- Velvetleaf plant response rating (velvetleaf; [11]): 6
- Plant response rating, B. signalgrass (surinam grass; [5]): 4
- B. signalgrass plant response rating (surinam grass; [6]): 6
- B. signalgrass plant response rating (surinam grass; [7]): 2
- Plant response rating, B. signalgrass (surinam grass; [8]): 2
- B. signalgrass plant response rating (surinam grass; [9]): 7
- Plant response rating, B. signalgrass (surinam grass; [12]): 8
- B. signalgrass plant response rating (surinam grass; [10]): 6
- B. signalgrass plant response rating (surinam grass; [11]): 8
- Plant response rating, Crabgrass (crabgrass; [5]): 4
- Crabgrass plant response rating (crabgrass; [6]): 8
- Crabgrass plant response rating (crabgrass; [7]): 8
- Plant response rating, Crabgrass (crabgrass; [8]): 9
- Crabgrass plant response rating (crabgrass; [9]): 10
- Crabgrass plant response rating (crabgrass; [10]): 9
- Crabgrass plant response rating (crabgrass; [11]): 10
- Plant response rating, Morningglory (morningglory; [5]): 2
- Morningglory plant response rating (morningglory; [6]): 2
- Morningglory plant response rating (morningglory; [7]): 0
- Plant response rating, Morningglory (morningglory; [8]): 1
- Morningglory plant response rating (morningglory; [9]): 3
- Morningglory plant response rating (morningglory; [10]): 4
- Morningglory plant response rating (morningglory; [11]): 4
- Plant response rating, Sugarbeets (sugar beet; [5]): 1
- Sugarbeets plant response rating (sugar beet; [6]): 2
- Sugarbeets plant response rating (sugar beet; [7]): 5
- Plant response rating, Sugarbeets (sugar beet; [8]): 6
- Sugarbeets plant response rating (sugar beet; [9]): 8
- Sugarbeets plant response rating (sugar beet; [10]): 2
- Sugarbeets plant response rating (sugar beet; [11]): 3
- Plant response rating, Giant foxtail (giant foxtail; [5]): 6
- Giant foxtail plant response rating (giant foxtail; [6]): 8
- Giant foxtail plant response rating (giant foxtail; [7]): 10
- Plant response rating, Giant foxtail (giant foxtail; [8]): 10
- Giant foxtail plant response rating (giant foxtail; [9]): 10
- Giant foxtail plant response rating (giant foxtail; [10]): 9
- Giant foxtail plant response rating (giant foxtail; [11]): 9
- Plant response rating, Nutsedge (purple nutsedge; [5]): 0
- Nutsedge plant response rating (purple nutsedge; [6]): 0
- Nutsedge plant response rating (purple nutsedge; [7]): 0
- Nutsedge plant response rating (purple nutsedge; [9]): 0
- Nutsedge plant response rating (purple nutsedge; [10]): 3
- Nutsedge plant response rating (purple nutsedge; [11]): 5
- Plant response rating, Wild oats (wild oat; [5]): 0
- Wild oats plant response rating (wild oat; [6]): 0
- Wild oats plant response rating (wild oat; [7]): 7
- Plant response rating, Wild oats (wild oat; [8]): 7
- Wild oats plant response rating (wild oat; [9]): 9
- Wild oats plant response rating (wild oat; [10]): 2
- Wild oats plant response rating (wild oat; [11]): 4
- Bedstraw plant response rating (bedstraw; [7]): 2
- Plant response rating, Bedstraw (bedstraw; [8]): 3
- Bedstraw plant response rating (bedstraw; [9]): 6
- Plant response rating, Bedstraw (bedstraw; [12]): 7
- Bedstraw plant response rating (bedstraw; [10]): 8
- Plant response rating, Soybean (soybean; [5]): 1
- Soybean plant response rating (soybean; [6]): 4
- Soybean plant response rating (soybean; [7]): 0
- Plant response rating, Soybean (soybean; [8]): 0
- Soybean plant response rating (soybean; [9]): 0
- Soybean plant response rating (soybean; [10]): 5
- Soybean plant response rating (soybean; [11]): 6
- Plant response rating, Corn (corn; [5]): 0
- Corn plant response rating (corn; [6]): 0
- Corn plant response rating (corn; [7]): 0
- Plant response rating, Corn (corn; [8]): 0
- Corn plant response rating (corn; [9]): 0
- Corn plant response rating (corn; [10]): 0
- Corn plant response rating (corn; [11]): 4
- Plant response rating, Blackgrass (blackgrass; [5]): 3
- Blackgrass plant response rating (blackgrass; [6]): 7
- Blackgrass plant response rating (blackgrass; [7]): 6
- Plant response rating, Blackgrass (blackgrass; [8]): 6
- Blackgrass plant response rating (blackgrass; [9]): 8
- Plant response rating, Blackgrass (blackgrass; [12]): 9
- Blackgrass plant response rating (blackgrass; [10]): 7
- Blackgrass plant response rating (blackgrass; [11]): 7
- Plant response rating, Rape (rape; [5]): 0
- Rape plant response rating (rape; [6]): 0
- Rape plant response rating (rape; [7]): 1
- Plant response rating, Rape (rape; [8]): 6
- Rape plant response rating (rape; [9]): 7
- Rape plant response rating (rape; [10]): 2
- Rape plant response rating (rape; [11]): 4
- Plant response rating, Wheat (wheat; [5]): 0
- Wheat plant response rating (wheat; [6]): 0
- Wheat plant response rating (wheat; [7]): 2
- Plant response rating, Wheat (wheat; [8]): 6
- Wheat plant response rating (wheat; [9]): 8
- Wheat plant response rating (wheat; [10]): 3
- Wheat plant response rating (wheat; [11]): 5
- Plant response rating, Cocklebur (cocklebur; [5]): 1
- Cocklebur plant response rating (cocklebur; [6]): 1
- Cocklebur plant response rating (cocklebur; [7]): 0
- Plant response rating, Cocklebur (cocklebur; [8]): 0
- Cocklebur plant response rating (cocklebur; [9]): 0
- Plant response rating, Cocklebur (cocklebur; [12]): 0
- Cocklebur plant response rating (cocklebur; [10]): 2
- Cocklebur plant response rating (cocklebur; [11]): 7
- Plant response rating, Redroot pigweed (pigweed; [5]): 3
- Redroot pigweed plant response rating (pigweed; [6]): 7
- Redroot pigweed plant response rating (pigweed; [7]): 7
- Plant response rating, Redroot pigweed (pigweed; [8]): 7
- Redroot pigweed plant response rating (pigweed; [9]): 9
- Redroot pigweed plant response rating (pigweed; [10]): 9
- Redroot pigweed plant response rating (pigweed; [11]): 10
